Laboratory results published in patent US20240139185A1, “COMPOUNDS THAT PARTICIPATE IN COOPERATIVE BINDING AND USES THEREOF” (Revolution Medicines, Inc., priority 2018, published 2024).
Where two headings read alike, the source gives them in different places.

Experiments:
cyclophilin A (CYPA) = cyclophilin A (CYPA) (Homo sapiens, UniProt P62937); test: CYPA-compound binary complex formation by SPR; conditions: read-out: CYPA Binding Affinity
In short: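 Steady-state fit of SPR responses gave binding affinity. Analyte series: 50 μM downward, 2-fold, 10 points, running buffer HBS-P+ (0.05% Tween20, pH7.4, 2% DMSO), 60 s on/60 s off. Surface: biotinylated CypA-Avi captured at 4 μg/ml against a reference cell, regenerated with NaOH/guanidine.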

pERK in H358 cells = test: pERK inhibition in H358 cells; type: cell-based, human; conditions: read-out: Cellular pERK inhibition
Experimental: H358 cells (5500 cells) derived from a human lung cancer were plated in a 96 well plate in media (100 uL, RPMI with 10% FBS). After 24 hours, cells were treated for 4 hours with compound or DMSO. Cells were washed twice with room temperature TBS (200 uL) and fixed for 20 minutes with 4% paraformaldehyde diluted with TBS (150 uL). Cells were washed four times for five minutes with 0.1% TritonX/TBS (150 uL) to permeabilize the membrane. Cells were incubated with TBS blocking buffer (100 uL) at room temperature for 60 minutes. Primary antibody (Phospho-p44/42 MAPK (Erk1/2) (Thr202/Tyr204) (D13.14.4E) XP® Rabbit mAb #4370, Cell Signaling Technology; 1:200) was added, and the cells were incubated overnight at 4 C. The cells were washed four times for five minutes with 0.1% Tween 20/TBS (150 uL). Secondary antibody (IRDye® 800CW Goat-Anti-Rabbit IgG, Li-Cor Biosciences; 1:1000) and DRAQ5™ (Invitrogen; 1:2000) was added, and the cells were incubated for 1 hour at room temperature. The cells were washed four times for five minutes with 0.1% Tween 20/TBS (150 uL) and scanned using the LICOR (700 and 800 nm).

[1] = target: T1, BRAF-GTP-KRAS-G12C complex (Homo sapiens, UniProt P01116+P62937, G12C); test: KRAS-BRAF complex disruption through competition with CYPA-compound by TR-FRET; conditions: biochemical BRAF-KRAS G12C-GTP disruption assay EC50, with CYPA
T1 construct: 50 nM of His6-KRas G12C-GTP (1-169); 500 nM of tagless CypA (1-165)
In short: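 Compound-driven loss of KRAS–BRAF RBD TR-FRET signal, Eu-anti-His/APC-anti-GST pair (10/50 nM, 1.5 h), following a 3 h room-temperature preincubation of 50 nM His6-KRAS G12C-GTP and 500 nM CypA in 25 mM Hepes pH 7.3 buffer. EC50 by 4-parameter fit. Variants used wild-type KRAS in place of G12C or no CypA.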

Structure (SMILES) | Kd (cyclophilin A (CYPA)) [µM] | IC50 (pERK in H358 cells; 4 hours treatment) [µM] | EC50 [1] [µM] | IC50 (pERK in H358 cells; Homo sapiens, NCI-H358, 4 hours treatment) [µM]
CC(C)[C@@H](C(=O)N[C@H]1Cc2cc(O)cc(c2)-c2ccc3c(C4CC4)cn(c3c2)C[C@H](C)COC(=O)[C@@H]2CCCN(N2)C1=O)N(C)C(=O)C1CN(C(=O)CCl)C1 [Compound 117] | 5 to 15 | ≤ 1 | ≤ 0.5 | –
CCN1CCCN2C[C@H](C)COC(=O)[C@@H]3CCCN(N3)C(=O)[C@@H](NC(=O)[C@H](C(C)C)N(C)C(=O)C3CN(C(=O)CCl)C3)Cc3cc(O)cc(c3)-c3ccc1c2c3 [Compound 187] | 5 to 15 | > 10 | > 5 | –
COc1ccccc1-c1cn2c3cc(ccc13)-c1cc(O)cc(c1)CC(NC(=O)C(C(C)C)N(C)C(=O)C1CN(C(=O)CCl)C1)C(=O)N1CCCC(N1)C(=O)OCC(C)C2 (stereo not drawn) [Compound 48] | 5 to 15 | 1 to 10 | ≤ 0.5 | –
CC(C)[C@@H](C(=O)N[C@H]1Cc2cc(O)cc(c2)-c2ccc3c(S(C)(=O)=O)cn(c3c2)CCCOC(=O)[C@@H]2CCCN(N2)C1=O)N(C)C(=O)C1CN(C(=O)CCl)C1 [Compound 102] | 5 to 15 | > 10 | ≤ 0.5 | –
C=CC(=O)N1CC2(CCN(C(C(=O)NC3Cc4cc(O)cc(c4)-c4ccc5c(C(C)(C)C#N)cn(c5c4)CC(C)(C)COC(=O)C4CCCN(N4)C3=O)C(C)C)C2=O)C1 (stereo not drawn) [Compound 42] | 5 to 15 | 1 to 10 | 0.5 to 5 | –
CC(C)[C@@H](C(=O)N[C@H]1Cc2cc(O)cc(c2)-c2ccc3c(C(C)(C)C#N)cn(c3c2)CC(C)(C)COC(=O)[C@@H]2CCCN(N2)C1=O)N(C)C(=O)C1(F)CN(C(=O)[C@@H](C)Cl)C1 [Compound 35] | 5 to 15 | > 10 | > 5 | –
COCC1COC(=O)C2CCCN(N2)C(=O)C(NC(=O)C(C(C)C)N(C)C(=O)C2CN(C(=O)CCl)C2)Cc2cc(O)cc(c2)-c2ccc3c(C(C)(C)C#N)cn(c3c2)C1 (single isomer, unassigned) [Compound 24] | 5 to 15 | ≤ 1 | ≤ 0.5 | –
CC(C)[C@@H](C(=O)N[C@H]1Cc2cc(O)cc(c2)-c2ccc3c(C#N)cn(c3c2)CC(C)(C)CNC(=O)[C@@H]2CCCN(N2)C1=O)N(C)C(=O)C1CN(C(=O)CCl)C1 [Compound 3, 1-(2-chloroacetyl)-N-((2S)-1-(((6^3S,4S)-1^3-cyano-2^5-hydroxy-10,10-dimethyl-5,7-dioxo-6^1,6^2,6^3,6^4,6^5,6^6-hexahydro-1^1H-8-aza-1(6,1)-indola-6(1,3)-pyridazina-2(1,3)-benzenacycloundecaphane-4-yl)amino)-3-methyl-1-oxobutan-2-yl)-N-methylazetidine-3-carboxamide] | ≤ 5 | – | ≤ 0.5 | > 10
CC1COC(=O)C2CCCN(N2)C(=O)C(NC(=O)C(C(C)C)N(C)C(=O)C2CN(C(=O)CCl)C2)Cc2cc(O)cc(c2)-c2ccc3c4c(n(c3c2)C1)CCC4C#N (mixture of isomers) [Compound 74] | ≤ 5 | 1 to 10 | ≤ 0.5 | –
CCN1CCC(=O)N2C[C@H](C)COC(=O)[C@@H]3CCCN(N3)C(=O)[C@@H](NC(=O)[C@H](C(C)C)N(C)C(=O)C3CN(C(=O)CCl)C3)Cc3cc(O)cc(c3)-c3ccc1c2c3 [Compound 186] | 5 to 15 | > 10 | > 5 | –
COCc1nc2ccc3cc2n1CC(C)(C)COC(=O)[C@@H]1CCCN(N1)C(=O)[C@@H](NC(=O)[C@H](C(C)C)N(C)C(=O)C1CN(C(=O)CCl)C1)Cc1cc(O)cc-3c1 [Compound 143] | 5 to 15 | > 10 | ≤ 0.5 | –
CC(C)[C@@H](C(=O)N[C@H]1Cc2cc(O)cc(c2)-c2ccc3c4cc(C#N)ccc4n(c3c2)CC(C)(C)COC(=O)[C@@H]2CCCN(N2)C1=O)N(C)C(=O)C1CN(C(=O)CCl)C1 [Compound 68] | ≤ 5 | 1 to 10 | ≤ 0.5 | –
CNC(=O)c1cn2c3cc(ccc13)-c1cc(O)cc(c1)C[C@H](NC(=O)[C@H](C(C)C)N(C)C(=O)C1CN(C(=O)CCl)C1)C(=O)N1CCC[C@H](N1)C(=O)OCC(C)(C)C2 [Compound 108] | 5 to 15 | > 10 | ≤ 0.5 | –
CC(C)[C@@H](C(=O)N[C@H]1Cc2cc(O)cc(c2)-c2ccc3c(CCC#N)cn(c3c2)C[C@H](C)COC(=O)[C@@H]2CCCN(N2)C1=O)N(C)C(=O)C1CN(C(=O)CCl)C1 [Compound 76] | ≤ 5 | ≤ 1 | ≤ 0.5 | –
CC(C)[C@@H](C(=O)N[C@H]1Cc2cc(O)cc(c2)-c2ccc3c(C(C)(C)C#N)cn(c3c2)C[C@H](C)COC(=O)[C@@H]2CCCN(N2)C1=O)N1CC[C@@H](NC(=O)CCl)C1=O [Compound 28] | ≤ 5 | > 10 | 0.5 to 5 | –

Continued, values first:

Kd (cyclophilin A (CYPA)) [µM] | IC50 (pERK in H358 cells; 4 hours treatment) [µM] | EC50 [1] [µM] | IC50 (pERK in H358 cells; Homo sapiens, NCI-H358, 4 hours treatment) [µM] | Structure (SMILES)
≤ 5 | ≤ 1 | ≤ 0.5 | – | CC(C)[C@@H](C(=O)N[C@H]1Cc2cc(O)cc(c2)-c2ccc3c(c2)n(c(=O)n3C)CC(C)(C)COC(=O)[C@@H]2CCCN(N2)C1=O)N(C)C(=O)C1CN(C(=O)CCl)C1 [Compound 189]
≤ 5 | 1 to 10 | ≤ 0.5 | – | CC(C)[C@@H](C(=O)N[C@H]1Cc2cc(O)cc(c2)-c2ccc3c(-c4ccnn4C)cn(c3c2)CC(C)(C)COC(=O)[C@@H]2CCCN(N2)C1=O)N(C)C(=O)C1CN(C(=O)CCl)C1 [Compound 239]
≤ 5 | > 10 | > 5 | – | C=CC(=O)N1CCC(C(=O)N(C)C(C(=O)NC2Cc3cc(O)cc(c3)-c3ccc4c(c3)N(CC(C)COC(=O)C3CCCN(N3)C2=O)CC4(C)C(C)=O)C(C)C)C1 (stereo not drawn) [Compound 391]
≤ 5 | ≤ 1 | ≤ 0.5 | – | CC(C)[C@@H](C(=O)N[C@H]1Cc2cc(O)cc(c2)-c2ccc3c(CCC#N)cn(c3c2)CC(C)(C)COC(=O)[C@@H]2CCCN(N2)C1=O)N(C)C(=O)C1CN(C(=O)CCl)C1 [Compound 256]
≤ 5 | > 10 | 0.5 to 5 | – | CC#CC(=O)N1CC(C(=O)N(C)[C@H](C(=O)N[C@H]2Cc3cc(O)cc(c3)-c3ccc4c(c3)n(c(=O)n4C)CC(C)(C)COC(=O)[C@@H]3CCCN(N3)C2=O)C(C)C)C1 [Compound 190]
5 to 15 | 1 to 10 | ≤ 0.5 | – | Cc1cnn(C)c1-c1cn2c3cc(ccc13)-c1cc(O)cc(c1)C[C@H](NC(=O)[C@H](C(C)C)N(C)C(=O)C1CN(C(=O)CCl)C1)C(=O)N1CCC[C@H](N1)C(=O)OCC(C)(C)C2 [Compound 240]
5 to 15 | 1 to 10 | ≤ 0.5 | – | CC(C)[C@@H](C(=O)N[C@H]1Cc2cc(O)cc(c2)-c2ccc3c(-c4ccn(C)n4)cn(c3c2)CC(C)(C)COC(=O)[C@@H]2CCCN(N2)C1=O)N(C)C(=O)C1CN(C(=O)CCl)C1 [Compound 257]
≤ 5 | 1 to 10 | ≤ 0.5 | – | CC1COC(=O)C2CCCN(N2)C(=O)C(NC(=O)C(C(C)C)N(C)C(=O)C2CN(C(=O)CCl)C2)Cc2cc(O)cc(c2)-c2ccc3c(c2)N(C1)CC3(C)C#N (mixture of isomers) [Compound 224]
5 to 15 | 1 to 10 | > 5 | – | C=CC(=O)N1CCC1C(=O)N(C)C(C(=O)NC1Cc2cc(O)cc(c2)-c2ccc3c(C(F)F)nn(c3c2)CC(C)COC(=O)C2CCCN(N2)C1=O)C(C)C (stereo not drawn) [Compound 204]
5 to 15 | ≤ 1 | 0.5 to 5 | – | C=CC(=O)N1CCC(C(=O)N(C)C(C(=O)NC2Cc3cc(O)cc(c3)-c3ccc4c(c3)c(cn4C(C#N)(CC)CC)CC(C)(C)COC(=O)C3CCCN(N3)C2=O)C(C)CC)C1 (stereo not drawn) [Compound 405]
> 15 | ≤ 1 | ≤ 0.5 | – | CC(C)[C@@H](C(=O)N[C@H]1Cc2cc(O)cc(c2)-c2ccc3c(Cl)nn(c3c2)CC(C)(C)COC(=O)[C@@H]2CCCN(N2)C1=O)N(C)C(=O)C1CN(C(=O)CCl)C1 [Compound 201]
≤ 5 | > 10 | > 5 | – | CC(C)[C@@H](C(=O)N[C@H]1Cc2cc(O)nc(c2)-c2ccc3c(C(C)(C)C#N)cn(c3c2)CC(C)(C)COC(=O)[C@@H]2CCCN(N2)C1=O)N(C)C(=O)C1CN(C(=O)CCl)C1 [Compound 339]
≤ 5 | ≤ 1 | 0.5 to 5 | – | C=CC(=O)N1CCC(C(=O)N(C)C(C(=O)NC2Cc3cc(O)cc(c3)-c3ccc4c(c3)N(CC(C)(C)COC(=O)C3CCCN(N3)C2=O)CC4(C)COC)C2CCCC2)C1 (stereo not drawn) [Compound 398]
